Test results as given in patent US3985766A, “Bis-imidazolyl-bisphenylmethane and salts thereof” (Bayer Aktiengesellschaft, priority 1968, dated 1976).

System: Trichophyton mentagrophytes
Assay: effectiveness in vitro against human-pathogenic fungi (fungistatic)
Format: cell-based
Details: Milieu d'epreuve according to Sabouraud, 28° C
Description: I. effectiveness in vitro against human-pathogenic fungi
1. Trichophyton mentagrophytes:
The test medium was Milieu d'epreuve according to Sabouraud, incubation temperature: 28° C.

Structure (SMILES)	MIC [µg/mL]
c1ccc(C(c2ccccc2)(n2ccnc2)n2ccnc2)cc1 [compound a), bis-imidazolyl-bis-phenylmethane]	< 4
Clc1ccc(C(c2ccccc2)(n2ccnc2)n2ccnc2)cc1 [compound b), bis-imidazolyl-4-chlorophenyl-phenylmethane]	< 4
Fc1ccc(C(c2ccccc2)(n2ccnc2)n2ccnc2)cc1 [compound c), bis-imidazolyl-4-fluorophenyl-phenylmethane]	< 4
Fc1ccc(C(c2ccccc2F)(n2ccnc2)n2ccnc2)cc1 [compound d), bis-imidazolyl-2,4'-difluoro-diphenylmethane]	< 4
Clc1ccccc1C(c1ccccc1)(n1ccnc1)n1ccnc1 [compound e), bis-imidazolyl-2-chlorophenyl-phenylmethane]	< 4
Clc1cccc(C(c2ccccc2)(n2ccnc2)n2ccnc2)c1 [compound f), bis-imidazolyl-3-chlorophenyl-phenylmethane]	< 4
N#Cc1ccc(C(c2ccccc2)(n2ccnc2)n2ccnc2)cc1 [compound g), bis-imidazolyl-4-cyanophenyl-phenylmethane]	< 40
